Experimental findings from US6750228B1, “Aromatic sulfone hydroxamic acid metalloprotease inhibitor” (priority 1997, dated 2004) are described below.

What all share (assay): biochemical
The target in assay [1] is T1, MMP-1 (Homo sapiens, UniProt P03956).
T1 construct: made in house; host or cells: transfected HT-1080 cells (provided by Dr. Harold Welgus, Washington University)
T1 sequence (P03956 100-469): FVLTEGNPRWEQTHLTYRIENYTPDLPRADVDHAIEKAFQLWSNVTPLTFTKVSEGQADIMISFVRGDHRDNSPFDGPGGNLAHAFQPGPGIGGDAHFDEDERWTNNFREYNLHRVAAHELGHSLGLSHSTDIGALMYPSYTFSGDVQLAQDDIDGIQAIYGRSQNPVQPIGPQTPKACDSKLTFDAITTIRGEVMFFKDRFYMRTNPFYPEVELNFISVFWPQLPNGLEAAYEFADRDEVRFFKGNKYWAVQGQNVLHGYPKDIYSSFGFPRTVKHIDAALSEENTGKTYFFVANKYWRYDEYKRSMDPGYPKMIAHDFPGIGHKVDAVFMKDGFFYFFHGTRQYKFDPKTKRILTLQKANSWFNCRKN
An outline of the steps: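 APMA- or trypsin-activated enzymes were preincubated with inhibitor for 5 min at room temperature, then the fluorogenic substrate MCA-Pro-Leu-Gly-Leu-Dpa-Ala-Arg-NH2 was added to a final 4 μM.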

The target of assay [2] is T2, MMP-2 (Homo sapiens, UniProt P08253).
T2 construct: made in house; provided by Dr. Gregory Goldberg, Washington University
T2 sequence (P08253 110-660): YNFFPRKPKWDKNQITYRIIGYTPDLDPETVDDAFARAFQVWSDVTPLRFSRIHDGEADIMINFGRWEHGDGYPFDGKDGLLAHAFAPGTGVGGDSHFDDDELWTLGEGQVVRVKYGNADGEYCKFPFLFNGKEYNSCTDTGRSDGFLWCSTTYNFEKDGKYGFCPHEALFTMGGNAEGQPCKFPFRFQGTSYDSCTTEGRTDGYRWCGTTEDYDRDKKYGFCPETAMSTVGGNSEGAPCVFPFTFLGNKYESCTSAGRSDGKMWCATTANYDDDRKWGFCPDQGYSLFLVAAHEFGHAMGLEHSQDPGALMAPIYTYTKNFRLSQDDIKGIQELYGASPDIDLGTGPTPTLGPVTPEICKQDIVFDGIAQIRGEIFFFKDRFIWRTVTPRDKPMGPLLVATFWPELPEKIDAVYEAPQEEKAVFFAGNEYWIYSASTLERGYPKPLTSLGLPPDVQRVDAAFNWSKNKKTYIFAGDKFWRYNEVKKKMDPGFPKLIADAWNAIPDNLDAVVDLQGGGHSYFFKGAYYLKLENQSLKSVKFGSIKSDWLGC
In short, it runs like this: (§1)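 Assay buffer 100 mM Tris-HCl, 100 mM NaCl, 10 mM CaCl2, pH 7.5. Activated MMP + inhibitor, 5 min RT; then methoxycoumarin peptide substrate, 4 μM final. Readout fluorescence; IC50 calculated.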

The target in assay [3] is T3, MMP-13 (Homo sapiens, UniProt P45452).
T3 construct: made in house; host or cells: baculovirus / insect cells
Conditions: recombinant human MMP-13, MCA peptide substrate 4 μM, pH 7.5, room temperature; read-out: MMP-13 IC50. An outline of the steps: as §1

The mark [4] stands for this setting: recombinant human MMP-1, MCA peptide substrate 4 μM, pH 7.5, room temperature, read-out: MMP-1 IC50.
The mark [5] stands for this setting: recombinant human MMP-2, MCA peptide substrate 4 μM, pH 7.5, room temperature, read-out: MMP-2 IC50.

Where two headings read alike, the source gives them in different places. Some results are limits rather than exact numbers.

What is called IC50 is the concentration that gives 50% inhibition. For `O=C(c1ccccc1)N1CCN(c2ccc(S(=O)(=O)C3(C(=O)NO)CCOCC3)cc2)CC1` [Example 593], the IC50 in assay [1] (setting [4]) is above 10000 nM; in assay [2] (setting [5]), 650 nM; in assay [3], 420 nM.
Turning to `COc1ccc(C(=O)N2CCN(c3ccc(S(=O)(=O)C4(C(=O)NO)CCOCC4)cc3)CC2)cc1` [Example 594], the IC50 in assay [1] was above 10000 nM; in assay [2] (MMP-2 IC50 (nM)) it was 650 nM; in assay [3], 570 nM.
As for `O=C(c1ccc(OC(F)(F)F)cc1)N1CCN(c2ccc(S(=O)(=O)C3(C(=O)NO)CCOCC3)cc2)CC1` [Example 595], the values for the IC50 in assay [1] (setting [4]), in assay [2] (setting [5]) and in assay [3] were above 10000 nM, 425 nM and 270 nM, respectively.
The matching figures for `CCCCSC1CCN(c2ccc(S(=O)(=O)C3(C(=O)NO)CCOCC3)cc2)CC1` [Example 596]: above 10000 nM, 10.6 nM and 1.1 nM.
The matching figures for `CCCCCN(C)C1CCN(c2ccc(S(=O)(=O)C3(C(=O)NO)CCOCC3)cc2)CC1` [Example 597]: above 10000 nM, 700 nM and 670 nM.
The matching figures for `CC(C)CCOCc1ccc(COC2CCN(c3ccc(S(=O)(=O)C4(C(=O)NO)CCOCC4)cc3)CC2)cc1` [Example 600]: above 10000 nM, 600 nM and 9 nM.
With `CCC(C)COCc1ccc(COC2CCN(c3ccc(S(=O)(=O)C4(C(=O)NO)CCOCC4)cc3)CC2)cc1` (stereo not drawn) [Example 601], the IC50 in assay [1] (setting [4]) is above 10000 nM; in assay [2] (setting [5]), 1300 nM; in assay [3], 9 nM.
For `CCC(CC)COCc1ccc(COC2CCN(c3ccc(S(=O)(=O)C4(C(=O)NO)CCOCC4)cc3)CC2)cc1` [Example 602] the same measures were above 10000 nM, 3000 nM and 70 nM.
As for `CCC(C)CCOCc1ccc(COC2CCN(c3ccc(S(=O)(=O)C4(C(=O)NO)CCOCC4)cc3)CC2)cc1` (stereo not drawn) [Example 603], the IC50 in assay [1] (setting [4]) is above 10000 nM; in assay [2] (setting [5]), 2300 nM; in assay [3] it was 15.8 nM.
For the molecule `O=C(NO)C1(S(=O)(=O)c2ccc(N3CCC(OCc4ccc(COCC5CCCCC5)cc4)CC3)cc2)CCOCC1` [Example 604], the IC50 was above 10000 nM in assay [1] (setting [4]), 2500 nM in assay [2] (setting [5]) and 20 nM in assay [3].
As for `O=C(NO)C1(S(=O)(=O)c2ccc(N3CCC(OCc4ccc(COCC5CCCC5)cc4)CC3)cc2)CCOCC1` [Example 605], the IC50 in assay [1] (setting [4]) is above 10000 nM; in assay [2] (setting [5]), 2000 nM; in assay [3] it was 10.6 nM.
The matching figures for `O=C(NO)C1(S(=O)(=O)c2ccc(N3CCC(OCc4ccc(COCCF)cc4)CC3)cc2)CCOCC1` [Example 606]: above 10000 nM, 77 nM and 3 nM.
In the case of `O=C(NO)C1(S(=O)(=O)c2ccc(N3CCC(OCc4ccc(COCC(F)(F)F)cc4)CC3)cc2)CCOCC1` [Example 607], the IC50 is above 10000 nM in assay [1] (setting [4]), 220 nM in assay [2] (setting [5]) and 2.9 nM in assay [3].
The matching figures for `O=C(NO)C1(S(=O)(=O)c2ccc(N3CCC(OCc4ccc(COCC(F)(F)C(F)F)cc4)CC3)cc2)CCOCC1` [Example 608]: above 10000 nM, 250 nM and 3 nM.
Turning to `O=C(NO)C1(S(=O)(=O)c2ccc(N3CCC(OCc4ccc(COCC(F)(F)C(F)(F)C(F)(F)F)cc4)CC3)cc2)CCOCC1` [Example 609], the IC50 in assay [1] (setting [4]) was above 10000 nM; in assay [2] (setting [5]), 2800 nM; in assay [3] it was 30.6 nM.
As for `O=C(NO)C1(S(=O)(=O)c2ccc(N3CCC(OCc4ccc(COCC(F)(F)C(F)(F)C(F)(F)C(F)F)cc4)CC3)cc2)CCOCC1` [Example 611], the IC50 in assay [1] (setting [4]) is above 10000 nM; in assay [2] (setting [5]), 1800 nM; in assay [3] it was 139 nM.
For `O=C(NO)C1(S(=O)(=O)c2ccc(N3CCC(OCc4ccc(COc5ccccc5)cc4)CC3)cc2)CCOCC1` [Example 613] the same measures were above 10000 nM, 30.7 nM and 8 nM.
Consider `O=C(NO)C1(S(=O)(=O)c2ccc(N3CCC(Oc4cccc5ccccc45)CC3)cc2)CCOCC1` [Example 614], for which the values for the IC50 in assay [1] (setting [4]), in assay [2] (setting [5]) and in assay [3] were above 10000 nM, 25.4 nM and 22 nM, respectively.
Take `O=C(NO)C1(S(=O)(=O)c2ccc(N3CCC(Oc4ccc(Cl)cc4)CC3)cc2)CCOCC1` [Example 615]: the IC50 is above 10000 nM in assay [1] (setting [4]), 11 nM in assay [2] (setting [5]) and 3.1 nM in assay [3].
For `COc1ccc(OC2CCN(c3ccc(S(=O)(=O)C4(C(=O)NO)CCOCC4)cc3)CC2)cc1OC` [Example 616] the same measures were above 10000 nM, 3.7 nM and 4 nM.
The matching figures for `O=C(NO)C1(S(=O)(=O)c2ccc(N3CCC(Oc4ccc(Cl)c(Cl)c4)CC3)cc2)CCOCC1` [Example 617]: above 10000 nM, 5.7 nM and 7 nM.
For `Cc1ccc(OC2CCN(c3ccc(S(=O)(=O)C4(C(=O)NO)CCOCC4)cc3)CC2)cc1` [Example 619], the results for the IC50 in assay [1] (setting [4]), in assay [2] (setting [5]) and in assay [3] were above 10000 nM, 5.7 nM and 4.3 nM, respectively.
For `O=C(NO)C1(S(=O)(=O)c2ccc(N3CCC(Oc4cccc(C(F)(F)F)c4)CC3)cc2)CCOCC1` [Example 620] the same measures were above 10000 nM, 225 nM and 27.8 nM.
For `CCOC(=O)CN1CCN(c2ccc(S(=O)(=O)C3(C(=O)NO)CCOCC3)cc2)CC1` [Example 621] the same measures were above 10000 nM, 1500 nM and 120 nM.
With `CCN1CCN(c2ccc(S(=O)(=O)C3(C(=O)NO)CCOCC3)cc2)CC1` [Example 622], the IC50 is above 10000 nM in assay [1] (setting [4]), 1600 nM in assay [2] (setting [5]) and 500 nM in assay [3].
In the case of `O=C(NO)C1(S(=O)(=O)c2ccc(N3CCC(SC4CCCCC4)CC3)cc2)CCOCC1` [Example 634], the IC50 is above 10000 nM in assay [1] (read-out: MMP-1 IC50), 60.7 nM in assay [2] (setting [5]) and 4.4 nM in assay [3].
On to `C=CCOC1CCN(c2ccc(S(=O)(=O)C3(C(=O)NO)CCOCC3)cc2)CC1` [Example 635], for which the IC50 is above 10000 nM in assay [1] (setting [4]), 260 nM in assay [2] (setting [5]) and 13.9 nM in assay [3].
For `Cc1ccc(OC2CCN(c3ccc(S(=O)(=O)C4(C(=O)NO)CCOCC4)cc3)CC2)cc1C` [Example 637] the same measures were above 10000 nM, 22 nM and 3.8 nM.
For `COc1cc(OC)cc(OC2CCN(c3ccc(S(=O)(=O)C4(C(=O)NO)CCOCC4)cc3)CC2)c1` [Example 639] the same measures were 9400 nM, 1.5 nM and 1.5 nM.
On to `CCOc1cccc(OC2CCN(c3ccc(S(=O)(=O)C4(C(=O)NO)CCOCC4)cc3)CC2)c1` [Example 640], for which the IC50 in assay [1] (setting [4]) was above 10000 nM; in assay [2] (setting [5]), 15.8 nM; in assay [3] it was 4.2 nM.
Consider `O=C(NO)C1(S(=O)(=O)c2ccc(N3CCC(Oc4ccc(Cl)cc4F)CC3)cc2)CCOCC1` [Example 641], for which the IC50 in assay [1] (setting [4]) was above 10000 nM; in assay [2] (setting [5]), 13.7 nM; in assay [3], 4 nM.
The matching figures for `CCCCc1ccc(OC2CCN(c3ccc(S(=O)(=O)C4(C(=O)NO)CCOCC4)cc3)CC2)cc1` [Example 642]: above 10000 nM, 1.1 nM and 2.2 nM.
Turning to `COCCc1ccc(OC2CCN(c3ccc(S(=O)(=O)C4(C(=O)NO)CCOCC4)cc3)CC2)cc1` [Example 643], the results for the IC50 in assay [1] (setting [4]), in assay [2] (setting [5]) and in assay [3] were 6000 nM, 1.2 nM and 1.8 nM, respectively.
For `O=C(NO)C1(S(=O)(=O)c2ccc(N3CCC(Oc4ccc5c(c4)OCO5)CC3)cc2)CCOCC1` [Example 644] the same measures were 8800 nM, 3.3 nM and 1.6 nM.
